# Measurements reported in US11927585B2, “Solvent-based inks and coatings for food contact applications” (SUN CHEMICAL CORPORATION, priority 2020, dated 2024).
# How the values were obtained:
# [1] = Worst-case calculation, Application 1 yoghurt pot lid exposure scenario; conditions: 100% migration, 2.0 g/m^2 dry film
# [2] = Worst-case calculation, Application 2 cheese packaging wrap exposure scenario; conditions: 100% migration, 2.0 g/m^2 dry film
# [3] = Worst-case calculation (100% migration), standard EU Cube exposure model; conditions: for Worst-case calculation as a percentage of SML (or restriction), EU Cube: 2.0 g/m^2 dry film
# [4] = Specific migration limit (SML) from regulation or hazard assessment (TTC, VEGA QSAR, Cramer Class); conditions: for SML (or restriction): Source of SML or restriction: HA (internal hazard assessment); for SML or Restriction (mg substance/kg food): source HA (internal hazard assessment), self-derived SML, EU Cube model
smiles,measurement,setting,value
"c1ccc2ccccc2c1 [0000091-20-3, Naphthalene]","Worst-case calculation as a percentage of SML (or restriction), Application 1",[1]; product SBDEV976,0.2 percentage of SML (or restriction)
same,"Worst-case calculation as a percentage of SML (or restriction), Application 1",[1]; product SBDEV1286,0.2 percentage of SML (or restriction)
same,"Worst-case calculation as a percentage of SML (or restriction), Application 2",[2]; product SBDEV976,0.6 percentage of SML (or restriction)
same,"Worst-case calculation as a percentage of SML (or restriction), Application 2",[2]; product SBDEV1286,0.6 percentage of SML (or restriction)
same,"Worst-case calculation as a percentage of SML (or restriction), EU Cube","[3]; product SBDEV976, 100% migration",0.4 percentage of SML (or restriction)
same,"Worst-case calculation as a percentage of SML (or restriction), EU Cube","[3]; product SBDEV1286, 100% migration",0.4 percentage of SML (or restriction)
same,Worst Case Calculation of migration in EU Cube model (as a percentage of SML),"[3]; substance in ink SBDEV976 (Ex. 4C Cyan), 100% migration, dry coat weight 2.0 g/m^2",0.4 percentage of SML
O=C(O)c1ccc(-c2ccccc2)cc1 [4-Phenylbenzoic Acid],SML (or restriction),[4],0.09 mg substance/kg food
"CCCOC(CC)OCCC [Propane, 1,1-dipropoxy-]",SML (or restriction),[4],0.09 mg substance/kg food
O=C1NCCN1 [2-Imidazolidinone],SML (or restriction),[4],4.98 mg substance/kg food
"OCCNCCO [0000111-42-2, Diethanolamine]",Worst Case Calculation of migration in EU Cube model: Basis for Safety outcome,"[3]; substance in ink SBDEV977 (Ex. 4A Yellow), volatile substance",Converter
"O=C1NC(=O)C(=C2NC(=O)c3ccccc32)C(=O)N1 [0013481-50-0, 2,4,6(1H,3H,5H)-Pyrimidinetrione, 5-(2,3-Dihydro-3-Oxo-1H-Isoindol-1-Ylidene)-]",SML or Restriction (mg substance/kg food),[4],0.09 mg substance/kg food
"CCCOC(CC)OCCC [0004744-11-0, Propane, 1,1-dipropoxy-]",SML or Restriction (mg substance/kg food),[4],0.09 mg substance/kg food
NC(=O)c1ccc(-c2ccccc2)cc1 [4-Phenylbenzamide],SML (or restriction),[4],0.09 mg substance/kg food
"c1ccc(-c2ccc(-c3nc(-c4ccc(-c5ccccc5)cc4)nc(-c4ccc(-c5ccccc5)cc4)n3)cc2)cc1 [1,3,5-Triazine, 2,4,6-Tris([1,1′-Biphenyl]-4-Yl)-]",SML (or restriction),[4],5 mg substance/kg food
O=Cc1ccc(Cl)cc1 [4-Chlorobenzaldehyde],SML (or restriction),[4],0.09 mg substance/kg food
"O=Cc1ccc(-c2ccccc2)cc1 [0003218-36-8, 4-Phenylbenzaldehyde]",SML or Restriction (mg substance/kg food),[4],0.09 mg substance/kg food
